Assay results reported in ChEMBL document CHEMBL1201862, “PubChem BioAssay data set” (2004).
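Interpolation was linear, between the two tested concentrations surrounding the appropriate level; five concentrations were tested over 48 hours in 96-well plates. GI50: concentration for 50% inhibition of growth.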 The source made the active and inactive calls. Rule as the data show it: active = GI50 up to about 1.1 µM and inactive = higher.

What was measured:
Experiment in all cases: NCI tumour cell line growth inhibition, 48 h
CCRF-CEM = system: CCRF-CEM
HCC 2998 = system: HCC 2998
HCT-15 = system: HCT-15
HT-29 = system: HT-29
K562 = system: K562
LOX IMVI = system: LOX IMVI
MDA-N = system: MDA-N
MOLT-4 = system: MOLT-4
NCI-H460 = system: NCI-H460
OVCAR-4 = system: OVCAR-4
SF-268 = system: SF-268
SF-295 = system: SF-295
SK-MEL-28 = system: SK-MEL-28
TK-10 = system: TK-10
U-251 = system: U-251
UACC-257 = system: UACC-257
T47D = system: T47D
UACC-62 = system: UACC-62

SMILES	GI50 (CCRF-CEM)	GI50 (HCC 2998)	GI50 (HCT-15)	GI50 (HT-29)	GI50 (K562)	GI50 (LOX IMVI)	GI50 (MDA-N)	GI50 (MOLT-4)	GI50 (NCI-H460)	GI50 (OVCAR-4)	GI50 (SF-268)	GI50 (SF-295)	GI50 (SK-MEL-28)	GI50 (TK-10)	GI50 (U-251)	GI50 (UACC-257)	GI50 (T47D)	GI50 (UACC-62)
COC(=O)c1ccc(C)cc1C1CN=NC12Cc1cc(C)c(C)cc1C2=O (stereo not drawn)	31 µM (inactive)	29.8 µM (inactive)	48.1 µM	25.3 µM (inactive)	27.4 µM (inactive)	25.9 µM (inactive)	27.9 µM (inactive)	26.7 µM (inactive)	37.7 µM (inactive)	> 100 µM (inactive)	36.6 µM (inactive)	47.3 µM (inactive)	45.7 µM (inactive)	> 100 µM (inactive)	46.7 µM (inactive)	53.2 µM (inactive)	–	–
Cc1cc2cc3c(cc2c(-c2ccc(N)cc2)n1)OCO3	28.5 µM (inactive)	–	53 µM	22.2 µM (inactive)	23.1 µM (inactive)	–	23.3 µM (inactive)	13.8 µM (inactive)	21.3 µM (inactive)	–	22.3 µM (inactive)	34.2 µM (inactive)	–	39.9 µM (inactive)	62.5 µM (inactive)	> 100 µM (inactive)	29.6 µM (inactive)	30.8 µM (inactive)
O=c1[nH][nH]c(=O)n1Cc1ccccc1Cn1c(=O)[nH][nH]c1=O	> 100 µM (inactive)	–	> 100 µM	> 100 µM (inactive)	> 100 µM (inactive)	> 100 µM (inactive)	> 100 µM (inactive)	> 100 µM (inactive)	> 100 µM (inactive)	–	> 100 µM (inactive)	> 100 µM (inactive)	> 100 µM (inactive)	> 100 µM (inactive)	> 100 µM (inactive)	> 100 µM (inactive)	> 100 µM (inactive)	> 100 µM (inactive)
O=C(O)COc1c(Cl)cc(Cl)c2cccnc12	> 100 µM (inactive)	–	> 100 µM	> 100 µM (inactive)	> 100 µM (inactive)	> 100 µM (inactive)	> 100 µM (inactive)	> 100 µM (inactive)	> 100 µM (inactive)	> 100 µM (inactive)	> 100 µM (inactive)	> 100 µM (inactive)	> 100 µM (inactive)	> 100 µM (inactive)	> 100 µM (inactive)	> 100 µM (inactive)	> 100 µM (inactive)	> 100 µM (inactive)
C=C(CCOC)CCC1CCCCC(=C)[C@H]1OC(C)=O (stereo partly drawn)	> 100 µM (inactive)	–	> 100 µM	> 100 µM (inactive)	> 100 µM (inactive)	> 100 µM (inactive)	> 100 µM (inactive)	59.7 µM (inactive)	> 100 µM (inactive)	> 100 µM (inactive)	> 100 µM (inactive)	> 100 µM (inactive)	> 100 µM (inactive)	> 100 µM (inactive)	> 100 µM (inactive)	> 100 µM (inactive)	> 100 µM (inactive)	> 100 µM (inactive)
Cc1ccc2c(c1)SC1=Nc3sc4cc(C)ccc4[n+]3CN12	–	1.75 µM (inactive)	40.5 µM	6.82 µM (inactive)	–	21 µM (inactive)	–	< 0.01 µM (active)	11.7 µM (inactive)	2.51 µM (inactive)	8.26 µM (inactive)	–	13 µM (inactive)	14.9 µM (inactive)	2.58 µM (inactive)	2.18 µM (inactive)	1.34 µM (inactive)	3.4 µM (inactive)
CCCc1c(O)nc(Nc2nc3ccccc3[nH]2)[nH]c1=O	86.5 µM (inactive)	–	> 100 µM	> 100 µM (inactive)	> 100 µM (inactive)	–	> 100 µM (inactive)	> 100 µM (inactive)	> 100 µM (inactive)	> 100 µM (inactive)	> 100 µM (inactive)	> 100 µM (inactive)	–	> 100 µM (inactive)	> 100 µM (inactive)	> 100 µM (inactive)	> 100 µM (inactive)	> 100 µM (inactive)
CC1(C)N=C(N)N=C(N)N1c1cccc(OCc2cccc([N+](=O)[O-])c2)c1	5.4 µM (inactive)	–	> 100 µM	6.03 µM (inactive)	0.75 µM (active)	9.27 µM (inactive)	3.29 µM (inactive)	1.22 µM (inactive)	1.6 µM (inactive)	39.6 µM (inactive)	9.75 µM (inactive)	> 55.7 µM (inactive)	> 55.2 µM (inactive)	18.7 µM (inactive)	2.88 µM (inactive)	4.29 µM (inactive)	38.3 µM (inactive)	6.11 µM (inactive)
Cc1c(/C=N/NC(=S)Nc2ccccc2)c(=O)n(-c2ccccc2)n1C	48 µM (inactive)	> 100 µM (inactive)	47.5 µM	> 100 µM (inactive)	31.2 µM (inactive)	> 100 µM (inactive)	–	> 100 µM (inactive)	> 100 µM (inactive)	> 100 µM (inactive)	> 100 µM (inactive)	> 100 µM (inactive)	> 100 µM (inactive)	> 100 µM (inactive)	> 100 µM (inactive)	> 100 µM (inactive)	> 100 µM (inactive)	> 100 µM (inactive)
